According to paper PMC10610095 (Pharmaceuticals, 2023):
Where “and” joins values, the source holds several entries; their conditions need not be identical. Identical values can stand only once. Blank lines part the entries; values can stand above or below the compound they belong to.

What was measured:
[1] = test system: GPR44 vs thromboxane receptor (TP); design: method as in PMID 15179446; settings: cited from earlier work
GPR44 = test system: GPR44; design: method as in PMID 30557325; settings: clinical trial, orally administered; cited from earlier work
DP1 = test system: DP1; design: method as in PMID 33800801; settings: cited from earlier work
TP = test system: TP; design: method as in PMID 33800801; settings: cited from earlier work
[2] = biological target: T1, GPR44 (transplanted human islets) (Homo sapiens, UniProt Q9Y5Y4); experiment: Biodistribution in NOD/SCID mice with transplanted human islets in a renal capsule; format: in vivo; settings: 500 IEQ human islets, 30 min p.i., two individual mice
T1 construct: Only transplanted human islets were targeted by the GPR44 radio-probes; tissue Southern California Islet Cell Resources Center; host or cells: human pancreatic islets from healthy adult donors, 500 IEQ transplanted into the renal capsule of NOD/SCID mice
T1 sequence (Q9Y5Y4 1-395): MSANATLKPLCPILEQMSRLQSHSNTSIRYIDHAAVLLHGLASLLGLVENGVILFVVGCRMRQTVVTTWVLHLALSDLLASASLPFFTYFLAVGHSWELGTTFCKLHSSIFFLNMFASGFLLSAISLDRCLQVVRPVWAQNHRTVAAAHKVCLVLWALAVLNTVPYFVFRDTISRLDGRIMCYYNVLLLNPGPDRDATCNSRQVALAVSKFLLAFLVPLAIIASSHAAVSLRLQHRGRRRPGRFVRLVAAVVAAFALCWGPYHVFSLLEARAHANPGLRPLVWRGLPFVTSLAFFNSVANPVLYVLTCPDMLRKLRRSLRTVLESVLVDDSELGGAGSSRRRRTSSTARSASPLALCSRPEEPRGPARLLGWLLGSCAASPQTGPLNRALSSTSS
Experimental: A procedure similar to that of the above murine biodistribution was performed in this biodistribution study. Mice were euthanized at 30 min post-injection, and the organs/tissues of interest were collected.
Human islets with diameters of less than 250 µm were used for transplantation. A total of 500 IEQ human islets were transplanted into the renal capsule of NOD/SCID mice (n = 5) using a well-established standard procedure.
(§1) Under general anesthesia, NOD/SCID mice were administered doses of tracer (~3.7 MBq) intravenously through the tail vein, then the animals were euthanized at 30 min post-injection. Organs/tissues/islets of interest were harvested, weighed, and gamma-counted. Radioactive uptakes were calculated and reported as percentage of injected dose per gram (% ID/g) for each organ/tissue/islet.

[3] = Biodistribution in healthy control NOD/SCID mice; format: in vivo; settings: i.v.
Experimental: The uptake of the tracer in the kidney was ~4.00 ± 0.80% ID/g at 30 min p.i, 2.11 ± 1.06% ID/g at 60 min p.i., and 1.33 ± 0.47% ID/g at 90 min p.i. […] Low tracer uptake levels were common in the majority of organs, excluding excretion organs such as the liver. […] Of the time points, 30 min post-injection was chosen to evaluate the next specific GPR44 mouse models.
The biodistribution of [^18F]TM30089 was investigated in healthy NOD/SCID mice at various time points post-injection. Three time points (30 min, 60 min, or 90 min post-injection) and one blocking time point (30 min post-injection) were selected in the biodistribution (n = 4/each group). […] Under general anesthesia, NOD/SCID mice were administered doses of tracer (~3.7 MBq) intravenously through the tail vein. At the above-specified time points, the animals were euthanized, and the organs/tissues of interest were harvested. Organs/tissues were weighed, and the gamma was counted. Radioactive uptakes were calculated and reported as percentage of injected dose per gram (% ID/g) for each organ.

GPR44 (1.1 B4 tumor) = biological target: T2, GPR44 (1.1 B4 tumor) (Homo sapiens, UniProt Q9Y5Y4); experiment: Biodistribution in NOD/SCID mice implanted with 1.1 B4 cells, with and without blocking agent; format: in vivo; settings: 30 min p.i.; for pancreas uptake: 1.1 B4 model; for tumor uptake: 1.1 B4 tumor
T2 construct: 1.1 B4 cells were implanted into NOD/SCID mice to generate GPR44-expressing mouse models; endogenous in cells; host or cells: human 1.1 B4 hybrid cell line (human pancreatic islet culture x PANC-1), subcutaneous xenograft in NOD/SCID mice
T2 sequence (Q9Y5Y4 1-395): T1 sequence (Q9Y5Y4 1-395)
Experimental: NOD/SCID mice (n = 24) were subcutaneously injected with 1.1 B4 cells above their shoulders. Tumors were established 17–21 d after injection.
as §1, with “Organs/tissues/tumors” for “Organs/tissues/islets”, “organ/tissue/tumor.” for “organ/tissue/islet.”

Structure (SMILES): O=C(O)CCn1c2c(c3ccccc31)C[C@H](NS(=O)(=O)c1ccc(F)cc1)CC2 [ramatroban]
selectivity for GPR44 than for TP (times less) [1]: approximately 16 times

Structure (SMILES): CC(=O)Nc1cccc2c1c(Sc1ccc(Cl)cc1)c(C)n2CC(=O)O [AZD1981]
improvement in insulin secretion (GPR44): did not show a significant improvement in insulin secretion

Structure (SMILES): CN(C1CCc2c(c3ccccc3n2CC(=O)O)C1)S(=O)(=O)c1ccc(F)cc1 (stereo not shown) [TM-30089, {3-[(4-fluoro-benzenesulfonyl)methyl-amino]-1,2,3,4-tetrahydro-carbazol-9-yl}acetic acid]
off-target binding to DP1 (DP1): negligible off-target binding | off-target binding to TP (TP): negligible off-target binding

uptake in human islets transplanted into a kidney capsule [2]: 10.87 % ID/g and 6.21 % ID/g | uptake in other organs (heart, lung, pancreas, spleen) [3]: low uptakes | kidney uptake ([3]; 30 min p.i.): ~ 4.00 ± 0.80 % ID/g | liver uptake ([3]; 30 min p.i.): 15.31 ± 0.16 % ID/g | small intestine uptake ([3]; 30 min p.i.): 10.67 ± 2.13 % ID/g | kidney uptake ([3]; 60 min p.i.): 2.11 ± 1.06 % ID/g | liver uptake ([3]; 60 min p.i.): 8.76 ± 1.60 % ID/g | small intestine uptake ([3]; 60 min p.i.): 10.14 ± 0.47 % ID/g | kidney uptake ([3]; 90 min p.i.): 1.33 ± 0.47 % ID/g | liver uptake ([3]; 90 min p.i.): 6.62 ± 0.57 % ID/g | small intestine uptake ([3]; 90 min p.i.): 9.90 ± 0.26 % ID/g | pancreas uptake (GPR44 (1.1 B4 tumor); blocked group (cold TM30089 1 mg/kg)): 0.26 ± 0.05 % ID/g | pancreas uptake (GPR44 (1.1 B4 tumor); non-blocked group): 0.38 ± 0.04 % ID/g | tumor uptake (GPR44 (1.1 B4 tumor); blocked with cold TM30089 (1 mg/kg)): 0.24 ± 0.02 % ID/g | tumor uptake (GPR44 (1.1 B4 tumor); non-blocked): 27.81 ± 1.71 % ID/g
Structure (SMILES): CN(C1CCc2c(c3ccccc3n2CC(=O)O)C1)S(=O)(=O)c1ccc([18F])cc1 (stereo not shown) [[^18F]TM-30089]
